16 compounds from PubChem BioAssay AID276 (DTP/NCI, 2004) can be followed below.

Several values for one entry are separate records, joined by “and”; a condition that tells them apart may be missing. Identical values can stand only once. Inconclusive results and toxic doses are left out.

This assay deals with B6C3F1 mice, Lewis lung carcinoma iv, survival T/C. Put plainly: NCI In Vivo Anticancer Drug Screen. Data for tumor model Lewis Lung Carcinoma (intravenous) in B6C3F1 mice. The note with it: endpoint: median survival time, higher = longer survival. The essentials:
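Antitumor activity is assessed in tumor-bearing mice by comparing survival after compound treatment against vehicle-treated controls, reported as a T/C ratio.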

Where [1] appears, read: dose: 12.5 mg/kg/injection, schedule: Q01DX009 (ip), vehicle: saline with Tween-80.
The mark [2] stands for this setting: dose: 25.0 mg/kg/injection, schedule: Q01DX009 (ip), vehicle: saline with Tween-80.
[3] abbreviates: dose: 50.0 mg/kg/injection, schedule: Q01DX009 (ip), vehicle: saline with Tween-80.
The mark [4] stands for this setting: dose: 25.0 mg/kg/injection, schedule: Q01DX009 (ip), vehicle: Klucel (hydroxypropylcellulose) (HPC).
The mark [5] stands for this setting: dose: 50.0 mg/kg/injection, schedule: Q01DX009 (ip), vehicle: Klucel (hydroxypropylcellulose) (HPC).
[6] abbreviates: dose: 100.0 mg/kg/injection, schedule: Q01DX009 (ip), vehicle: Klucel (hydroxypropylcellulose) (HPC).
Where [7] appears, read: dose: 6.25 mg/kg/injection, schedule: Q01DX009 (ip), vehicle: saline.
Where [8] appears, read: dose: 12.5 mg/kg/injection, schedule: Q01DX009 (ip), vehicle: saline.
Where [9] appears, read: dose: 50.0 mg/kg/injection, schedule: Q01DX009 (ip), vehicle: saline.
[10] abbreviates: dose: 100.0 mg/kg/injection, schedule: Q01DX009 (ip), vehicle: saline.
[11] abbreviates: dose: 100.0 mg/kg/injection, schedule: Q01DX009 (ip), vehicle: saline with Tween-80.
The mark [12] stands for this setting: dose: 25.0 mg/kg/injection, schedule: Q01DX009 (ip), vehicle: saline.

For `O/N=C/c1ccccc1O.O/N=C/c1ccccc1O.[Cu]`, the T/C runs as follows: (dose: 1.56 mg/kg/injection, schedule: Q01DX009 (ip), vehicle: saline with Tween-80) 113 % of control; (dose: 3.12 mg/kg/injection, schedule: Q01DX009 (ip), vehicle: saline with Tween-80) 100 % of control; (dose: 6.25 mg/kg/injection, schedule: Q01DX009 (ip), vehicle: saline with Tween-80) 104 % of control; under setting [1], 96 % of control; under setting [2], 104 % of control; under setting [3], 96 % of control.
For the compound `CC(C)CC(=O)NC(C(=O)NC(C(=O)NC(CC(C)C)C(O)CC(=O)NC(C)C(=O)NC(CC(C)C)C(O)CC(=O)O)C(C)C)C(C)C` (stereo unspecified), the T/C by setting is: (dose: 3.12 mg/kg/injection, schedule: Q01DX009 (ip), vehicle: Klucel (hydroxypropylcellulose) (HPC)) 95 % of control; (dose: 6.25 mg/kg/injection, schedule: Q01DX009 (ip), vehicle: Klucel (hydroxypropylcellulose) (HPC)) 99 % of control; (dose: 12.5 mg/kg/injection, schedule: Q01DX009 (ip), vehicle: Klucel (hydroxypropylcellulose) (HPC)) 95 % of control; under setting [4], 97 % of control; under setting [5], 97 % of control; under setting [6], 95 % of control.
Consider `Cc1cc(NC(=S)SCc2ccc3c(c2)OCO3)ccc1Cl`, for which the T/C reads like this: under setting [4], 114 % of control; under setting [5], 114 % of control; under setting [6], 115 % of control.
For the compound `CC(=O)OC1C2(CC3N4C(=O)C5(CO)SSC4(CC31O)C(=O)N5C)OC(C)C(C)(C)C2=O` (stereo unspecified), the T/C reads like this: (dose: 0.08 mg/kg/injection, schedule: Q01DX009 (ip), vehicle: saline) 101 % of control; (dose: 0.15 mg/kg/injection, schedule: Q01DX009 (ip), vehicle: saline) 88 % of control; (dose: 0.31 mg/kg/injection, schedule: Q01DX009 (ip), vehicle: saline) 105 % of control; (dose: 0.62 mg/kg/injection, schedule: Q01DX009 (ip), vehicle: saline) 92 % of control; (dose: 1.25 mg/kg/injection, schedule: Q01DX009 (ip), vehicle: saline) 86 % of control.
Consider `O=C(/C=C(\Cl)C(=O)NO)NO`, for which the T/C reads like this: under setting [7], 115 % of control; under setting [8], 112 % of control; under setting [9], 110 % of control; under setting [10], 104 % of control.
In the case of `N=C(N)CCCCCCCCC(=N)N`, the T/C reads like this: (dose: 0.79 mg/kg/injection, schedule: Q01DX009 (ip), vehicle: saline) 112 % of control; (dose: 1.56 mg/kg/injection, schedule: Q01DX009 (ip), vehicle: saline) 119 % of control; (dose: 3.12 mg/kg/injection, schedule: Q01DX009 (ip), vehicle: saline) 112 % of control; under setting [7], 124 % of control; (dose: 12.5 mg/kg/injection, schedule: Q01DX001 (ip), vehicle: saline) 97 % of control; under setting [8], 115 % of control. The T/C is 103 % of control (dose: 25.0 mg/kg/injection, schedule: Q01DX001 (ip), vehicle: saline) and 107 % of control (dose: 50.0 mg/kg/injection, schedule: Q01DX001 (ip), vehicle: saline).
On to `CCC(C)Nc1ccc(N)cc1` (stereo unspecified), for which the T/C is 86 % of control (dose: 1.5 mg/kg/injection, schedule: Q01DX009 (ip), vehicle: Klucel (hydroxypropylcellulose) (HPC)); 98 % of control (dose: 3.0 mg/kg/injection, schedule: Q01DX009 (ip), vehicle: Klucel (hydroxypropylcellulose) (HPC)); 94 % of control (dose: 6.0 mg/kg/injection, schedule: Q01DX009 (ip), vehicle: Klucel (hydroxypropylcellulose) (HPC)); 93 % of control (dose: 12.0 mg/kg/injection, schedule: Q01DX009 (ip), vehicle: Klucel (hydroxypropylcellulose) (HPC)).
On to `CC(=O)C(=O)O.CC(=O)C(=O)O.[NH-]C1CCCCC1[NH-].[Pt+2]` (stereo unspecified), for which the T/C was 98 % of control (dose: 3.12 mg/kg/injection, schedule: Q01DX009 (ip), vehicle: other); 109 % of control (dose: 6.25 mg/kg/injection, schedule: Q01DX009 (ip), vehicle: other); 96 % of control (dose: 12.5 mg/kg/injection, schedule: Q01DX009 (ip), vehicle: other).
With `[N-]=[N+]=CC(=O)CCC(=O)C=[N+]=[N-]`, the T/C runs as follows: (dose: 0.39 mg/kg/injection, schedule: Q01DX009 (ip), vehicle: DMSO) 92 % of control; (dose: 0.78 mg/kg/injection, schedule: Q01DX009 (ip), vehicle: DMSO) 95 % of control; (dose: 1.5 mg/kg/injection, schedule: Q01DX009 (ip), vehicle: DMSO) 121 % of control; (dose: 3.0 mg/kg/injection, schedule: Q01DX009 (ip), vehicle: DMSO) 112 % of control; (dose: 6.0 mg/kg/injection, schedule: Q01DX009 (ip), vehicle: DMSO) 115 % of control; (dose: 25.0 mg/kg/injection, schedule: Q01DX009 (ip), vehicle: DMSO) 108 % of control.
Take `O=C(Nc1nncs1)c1cccs1`: the T/C is, setting by setting: under setting [1], 111 % of control; under setting [2], 93 % of control; under setting [3], 96 % of control; under setting [11], 103 % of control.
With `CCO/C=C1\SC(=S)N(c2ccccc2C)C1=O`, the T/C is, setting by setting: under setting [1], 104 % of control; under setting [2], 110 % of control; under setting [3], 98 % of control; under setting [11], 116 % of control; (dose: 200.0 mg/kg/injection, schedule: Q01DX009 (ip), vehicle: saline with Tween-80) 108 % of control; (dose: 400.0 mg/kg/injection, schedule: Q01DX009 (ip), vehicle: saline with Tween-80) 89 % of control.
Take `c1cc[c]([Sn]([NH]c2ncnc3[nH]cnc23)([NH]c2ncnc3[nH]cnc23)[c]2ccccc2)cc1`: the T/C reads like this: under setting [8], 103 % of control; under setting [12], 95 % of control; under setting [9], 106 % of control; under setting [10], 107 % of control; (dose: 200.0 mg/kg/injection, schedule: Q01DX009 (ip), vehicle: saline) 98 % of control.
As for `O=NN(CCCl)C(=O)NC1CCCCC1`, the T/C is 98 % of control (dose: 1.0 mg/kg/injection, schedule: Q01DX009 (ip), vehicle: Klucel (hydroxypropylcellulose) (HPC)); 112 % of control and 120 % of control (dose: 2.0 mg/kg/injection, schedule: Q01DX009 (ip), vehicle: Klucel (hydroxypropylcellulose) (HPC)); 108 % of control (dose: 2.0 mg/kg/injection, schedule: Q01DX009 (ip), vehicle: other); 100 % of control (dose: 4.0 mg/kg/injection, schedule: Q01DX009 (ip), vehicle: other); 295 % of control and 314 % of control (dose: 8.0 mg/kg/injection, schedule: Q01DX009 (ip), vehicle: Klucel (hydroxypropylcellulose) (HPC)); 100 % of control (dose: 8.0 mg/kg/injection, schedule: Q01DX009 (ip), vehicle: other). Besides, the T/C was 119 % of control (dose: 16.0 mg/kg/injection, schedule: Q01DX009 (ip), vehicle: other) and 166 % of control (dose: 32.0 mg/kg/injection, schedule: Q01DX009 (ip), vehicle: other).
On to `O=NN(CCF)C(=O)NC1CCC(=O)NC1=O` (stereo unspecified), for which the T/C reads like this: (dose: 2.5 mg/kg/injection, schedule: Q01DX009 (ip), vehicle: saline) 118 % of control; (dose: 10.0 mg/kg/injection, schedule: Q01DX009 (ip), vehicle: saline) 166 % of control; (dose: 20.0 mg/kg/injection, schedule: Q01DX009 (ip), vehicle: saline) 312 % of control.
On to `CCCCn1cnc2c(=S)nc[nH]c21`, for which the T/C reads like this: under setting [12], 112 % of control; under setting [9], 110 % of control.
`CCCCNc1ccc2nnc(C)n2n1`: the T/C (dose: 50.0 mg/kg/injection, schedule: Q01DX009 (ip), vehicle: DMSO) was 100 % of control; the T/C (dose: 100.0 mg/kg/injection, schedule: Q01DX009 (ip), vehicle: DMSO) is 100 % of control; the T/C (dose: 200.0 mg/kg/injection, schedule: Q01DX009 (ip), vehicle: DMSO) is 102 % of control.
